According to PubChem BioAssay AID977607 (Broad Institute, 2014):
Active and inactive are the calls of the source.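 Rule for the calls: active = curve reaches 40% activation over neutral controls at an AC40 no higher than the top valid tested concentration; inconclusive = no clear call, values can overlap the other calls; inactive = signal moving opposite to the expected increase, and the rest.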

System: INS-1E GLuc insulin secretion reporter, luminescence, 2-3 h
Experiment: GLuc-reported insulin release enhancers, glucose-stimulated beta cells – cell-based, INS-1E, Gaussia luciferase, luminescence, cherry-pick, set 2, dose response (AID 977607)

Row | SMILES | AC40
1 | N/C(=N\OC(=O)COc1ccc(Cl)cc1Cl)c1cccnc1 | 29.8 µM
2 | CC(=O)Nc1sc(N/N=C\c2cccc(Cl)c2)nc1-c1cccs1 | 6.6 µM
3 | COc1ccc(-c2ccc(C3[C@@H]4CN(Cc5cccc(OC)c5)C[C@H]3N4)cc2)cc1 (some centres not stated) | 2.47 µM
4 | Fc1ccccc1/C=N/n1c(C2CCCCC2)n[nH]c1=S | 18.5 µM
5 | CC1(Cc2ccc(C(F)(F)F)o2)C(=O)Nc2ccc(-c3cccc(C(F)(F)F)c3)cc21 (configuration not stated) | 8.84 µM
6 | CC(C)Nc1nc(Cl)nc(NC(C)C)n1 | 11.6 µM
7 | Cc1ccc(NC(=O)c2oc3ccc(S(=O)(=O)N4CCOCC4)cc3c2C)cc1C | 15.6 µM
8 | COc1ccc(NC(=O)COc2ccc(C(=O)NC3CCCc4ccccc43)cc2OC)cc1 (configuration not stated) | 6.54 µM
9 | COC(=O)C1=C(C)N(Cc2cccc(C(F)(F)F)c2)C(=NCc2ccc(OC)cc2)NC1c1cccc(F)c1 (configuration not stated) | 10.8 µM
10 | Clc1ccc(-c2ccnc(Oc3cc(Cl)ccc3Cl)n2)cc1 | 7.53 µM
11 | COc1cc2cnc(-c3ccsc3)cc2cc1OC | 0.826 µM
12 | COc1ccc(N2CCN(c3ccc(NC(=O)C4CCCCC4)cc3C#N)CC2)cc1 | 2.8 µM
13 | CC1(C(=O)NS(=O)(=O)c2ccc(Cl)s2)CCN1C(=O)C1(c2ccc(Cl)cc2)CCC1 (configuration not stated) | > 35 µM (inactive)
14 | COc1ccc(-n2sc3ccccc3c2=O)cc1 | 3.14 µM
15 | CCCCCCCCN1C(=O)[C@@H](CC(=O)N2CCN(C(=O)c3ccco3)CC2)C[C@@]2(C(=O)OC)C1=C[C@H](C1CCCC1)O[C@@H]2C | 12 µM
16 | CCOC(=O)c1cc2sccc2n1CC(=O)N1c2ccccc2CC1C (configuration not stated) | 3.59 µM
17 | COc1cc2nc(N3CCN(c4cc(C)ccc4C)CC3)nc(N)c2cc1OC | 8.44 µM
18 | O=c1[nH]c(/C=C/c2ccc(OC(F)F)cc2)nc2c1cnn2-c1ccccc1 | 21.6 µM
19 | FC(F)(F)c1cc(CCN2CCNC[C@@H]2Cc2ccccc2)cc(C(F)(F)F)c1 | 17.8 µM
20 | O=C(Nc1ccc(F)cc1)Nc1cc(OCC(F)(F)F)cc(OCC(F)(F)F)c1 | 7.63 µM
21 | O=c1[nH][nH]c2c1C(c1ccc(Cl)c(Cl)c1)OC(CCc1ccccc1)C2 (configuration not stated) | 16.9 µM
22 | CC(C)(C)OC(=O)N[C@@H](Cc1ccccc1)c1nnc(S(=O)(=O)Cc2ccccc2)o1 | 3.69 µM

Row | SMILES | AC40
23 | C=CCn1c(-c2csc(-c3ccc(OC)c(OC)c3)n2)n[nH]c1=S | 1.01 µM
24 | COc1ccc(/C=N/NC(=O)c2ccc(COc3ccccc3Cl)o2)c(OC)c1C | 5.44 µM
25 | Cc1nc(N)c(C#N)c(-c2cccnc2)c1C | 14.2 µM
26 | CCOc1ccc(CN2C(=O)c3ccccc3C2=O)cc1C(=O)Nc1nnc(SCC)s1 | 13.6 µM
27 | C(=C\c1ccc(C2[C@@H]3CN(Cc4nccs4)C[C@H]2N3)cc1)/c1ccccc1 (some centres not stated) | 17 µM
28 | COCCNc1nc(Oc2cncc(Cl)c2)c2sccc2n1 | 2.88 µM
29 | OC[C@@H]1[C@@H](c2ccc(C#CC3CCCC3)cc2)[C@@H]2CN(CCC(F)(F)F)CCCCN12 | 6.02 µM
30 | CC(C)CC(NC(=O)c1ccc(Cl)cc1)C(=O)OCC(=O)c1ccc2c(c1)NC(=O)CO2 (configuration not stated) | 2.36 µM
31 | CCOc1ncccc1C(=O)Nc1ccc(S(=O)(=O)Nc2nc(C)cc(C)n2)cc1 | 33.2 µM
32 | FC(F)(F)c1cc(CCN2CCNC[C@@H]2CC2CCCCC2)cc(C(F)(F)F)c1 | 5.27 µM
33 | CN(C)CCCNc1cc(C(C)(C)C)nc2c(-c3ccc(Cl)cc3)cnn12 | 7.08 µM
34 | CN(C(=O)c1ccc2c(c1)SC1=NS(=O)(=O)CCN12)C(c1ccccc1)c1ccccc1 | 0.518 µM
35 | COc1ccc2c(c1)CCc1c(C(=O)Nc3cc(C)n(Cc4ccc(Cl)cc4)n3)noc1-2 | 6.07 µM
36 | COc1cc(/C=N/NC(=O)C(C)n2nnc3ccccc32)ccc1O (configuration not stated) | 6.55 µM
37 | Cc1ccc(C(=O)Oc2ccc(-c3nccc(-c4ccccn4)n3)cc2)cc1 | 3.99 µM
38 | COc1ccc(C(CCNCc2ccc(OC(C)C)cc2)C(C)C)cc1 (configuration not stated) | 21.7 µM
39 | CCS(=O)(=O)Nc1ccc(-c2cc(-c3ccccc3)c3cc(C)ccc3n2)cc1 | 6.45 µM
40 | Fc1cccc(CN2C[C@@H]3N[C@H](C2)C3c2ccc(/C=C/c3ccccc3)cc2)c1 (some centres not stated) | 11.4 µM
41 | COc1ccc(C(=O)Cc2ccc3c(c2)OCO3)c(O)c1 | > 35 µM (inactive)
42 | O=C(O)c1ccc(/C=N/n2c(C3CCCCC3)n[nH]c2=S)cc1 | 5.87 µM
43 | COc1ccc(C2=NN(C(C)=O)C(c3cccs3)C2)cc1OC (configuration not stated) | 8.92 µM
44 | C/C(=N/NC(=O)c1ccc(Br)s1)c1ccncc1 | > 35 µM (inactive)

Row | SMILES | AC40
45 | COc1ccc(C(O)c2nc(-c3ccc(OC)c(OC)c3)cs2)cc1 (configuration not stated) | > 35 µM (inactive)
46 | CCCCCCn1c(N(CC)CC)nc2c1c(=O)[nH]c(=O)n2C | 23.8 µM
47 | CC(C)(C)c1ccccc1OCC(O)CN1CCN(c2ccccn2)CC1 (configuration not stated) | 13.7 µM
48 | CCC1OC(C2CC2)CC2=C1C(=O)OC(C)(C)O2 (configuration not stated) | 4.79 µM
49 | CN(C)Cc1ccccc1Sc1ccc2c(c1)CCCC2 | 16.6 µM
50 | CC1(C(=O)NCc2cccc3ccccc23)CCN1Cc1ccc(OC(F)(F)F)cc1 (configuration not stated) | 14.3 µM
51 | OC(c1ccccc1)(c1ccccc1)C1CCN(CCCOc2ccc(-c3ccsc3)cc2)CC1 | 8.81 µM
52 | Cc1ccccc1C(=O)Nc1nnc(-c2ccc(C(C)(C)C)cc2)s1 | 18.3 µM
53 | Cn1c(=O)oc2cc(S(=O)(=O)N3CCC(C(=O)Nc4ccc(OC(F)(F)F)cc4)CC3)ccc21 | 7.48 µM
54 | CC(C)CC#Cc1ccc2c(c1)O[C@@H](CN(C)Cc1ccc(F)cc1)[C@H](C)CN([C@H](C)CO)S2(=O)=O | 10.4 µM
55 | COc1ccccc1CCn1cnc(-c2ccc(F)cc2)c1CC(C)C | 7.14 µM
56 | O=C(CCN1CCOCC1)c1ccc2c(c1)OCCO2 | 14.5 µM
57 | CN(C)S(=O)(=O)c1cccc(-n2sc3ccccc3c2=O)c1 | 4.6 µM
58 | CCOC(=O)c1c(-n2cnnn2)sc2c1CCCC2 | 14.6 µM
59 | CCCCCCN1C[C@H](n2cc(COC(=O)c3ccccc3)nn2)[C@@H](O)C[C@@H]1c1ccc(C)cc1 | 6.42 µM
60 | CCN=C1NC(c2ccc(C(F)(F)F)cc2)C(C(=O)OC)=C(C)N1Cc1cccc(C(F)(F)F)c1 (configuration not stated) | 14.3 µM
61 | Cc1ccc2nc(Cl)nc(-c3ccccc3)c2c1 | 12.2 µM
62 | CCC(C)c1ccccc1OCCCN(C)Cc1ccccc1 (configuration not stated) | 7.97 µM
63 | C=C[C@@]1(C)CC(=O)[C@]2(O)[C@@]3(C)[C@@H](O)CCC(C)(C)[C@@H]3[C@H](O)[C@H](OC(C)=O)[C@@]2(C)O1 | 0.0336 µM
64 | CCOC(=O)Nc1cccc(OCC(=O)Nc2ccc3c(c2)CCC3)c1 | 7.83 µM
65 | Cc1cc2c(cc1C)CSC(c1c(O)ccc3ccccc13)SC2 | 10.9 µM
66 | COc1ccc(-c2nc(CCl)cs2)cc1OC | > 35 µM (inactive)

Row | SMILES | AC40
67 | Cc1ccc(-c2n[nH]c(=S)n2/N=C/c2c(C)nn(-c3ccccc3)c2C)cc1 | 11.2 µM
68 | Cc1ccc2oc(-c3ccc(NC(=O)c4ccc5c(c4)OCO5)cc3)nc2c1 | 4.81 µM
69 | CCn1nc(C)c(NC(=O)c2cnn3c(C(F)F)cc(-c4ccccc4)nc23)c1C | 3.84 µM
70 | CCCCc1c(-c2ccc(F)cc2F)ncn1CCc1ccccc1OC | 8.96 µM
71 | O=c1c2cc(F)ccc2sn1-c1ccccc1Cl | 1.85 µM
72 | CC(C)CC#Cc1ccc2c(c1)O[C@@H](CN(C)Cc1cccc(F)c1)[C@H](C)CN([C@@H](C)CO)S2(=O)=O | 7.13 µM
73 | Cc1cccc(-c2ccc(C3[C@@H]4CN(C(=O)C5CCCCC5)C[C@H]3N4)cc2)c1 (some centres not stated) | 18.5 µM
74 | CCn1c(SCc2cc(=O)[nH]c3ccccc23)nc2c1c(=O)n(C)c(=O)n2C | 1.42 µM
75 | CNc1nc(-c2ccccc2)[n+](-c2ccc(C)cc2)s1 | 2.16 µM
76 | COC(=O)c1sccc1NC(=O)COc1ccc(Cl)cc1Cl | 9.33 µM
77 | CCc1ccc(-c2c(C)sc(NC(=O)C3CCC3)c2C#N)cc1 | 5.78 µM
78 | CC(=NC(C)c1ccccc1)c1c(O)[nH]c(=O)[nH]c1=O (configuration not stated) | 15 µM
79 | COc1ccc2c(c1)C(=NNC(=O)c1ccccn1)c1cc(OC)ccc1-2 | 3.1 µM
80 | CC(NCC(O)COCCC12CC3CC(CC(C3)C1)C2)c1ccccc1 (configuration not stated) | 14.9 µM
81 | OC(c1ccccc1)(c1nc(-c2cccc(C(F)(F)F)c2)cs1)C(F)(F)F (configuration not stated) | 10.3 µM
82 | CC(C)(C)c1nc2ccc(Cl)cn2c1CC1CCCCC1 | 16 µM
83 | COc1cc2ccc(CC(=O)O)cc2cc1OC | 2.69 µM
84 | COc1cc(CN2[C@@H]3CNC[C@H]2C3c2ccc(/C=C/c3ccccc3)cc2)cc(OC)c1 (some centres not stated) | 10.3 µM
85 | CNc1nc(Cl)nc2c1ncn2-c1ccccc1 | 15.6 µM
86 | COc1ccc(-c2ccc3c(N)c(C(=O)c4ccc(OC)c(OC)c4)sc3n2)cc1 | 5.83 µM
87 | COc1ccc(-c2cnnn2-c2ccc(N)cc2)cc1OC | > 35 µM (inactive)
88 | COc1cc2c(cc1OC)/C(=C/C(=O)c1ccc(NC(C)=O)cc1)NCC2 | 14.6 µM

Row | SMILES | AC40
89 | COc1cc2sc3ccc(C#Cc4ccc(N)cc4)cc3c(=O)c2cc1OC | 33.4 µM
90 | CCOC(=O)c1oc2ccccc2c1NC(=O)c1cccs1 | 14 µM
91 | COc1ccccc1NC(=O)N1CCCCN2[C@@H](CO)[C@@H](c3ccc(C#CC4CCCC4)cc3)[C@@H]2C1 | 16.5 µM
92 | OC(c1ccccc1)(c1ccccc1)C1CCN(CCCOc2ccc(-c3ccc(F)cc3F)cc2)CC1 | 3.89 µM
93 | O=C(Nc1nnc(-c2ccccc2SCc2ccccc2F)s1)Nc1ccccc1F | 16.7 µM
94 | O=c1c2ccc(F)cc2sn1-c1ccccc1 | 4.2 µM
95 | COc1ccc(C(=O)C2CCCN(C(=O)c3n[nH]c4c3CCCC4)C2)cc1OC (configuration not stated) | 3.89 µM
96 | Cc1cc(OCCCN2CCC(C(O)(c3ccccc3)c3ccccc3)CC2)ccc1Br | 4.77 µM
97 | COc1ccc(CCn2ccc(O)c(Cc3c(F)cccc3Cl)c2=O)cc1OC | 0.0544 µM
98 | COC(=O)C1=C(C)N(Cc2cccc(C(F)(F)F)c2)C(=NCc2ccccc2)NC1c1ccc(Cl)cc1 (configuration not stated) | 11.6 µM
99 | Cc1cc(C)nc(NS(=O)(=O)c2ccc(N/C=C/C(=O)c3ccc(Cl)c(Cl)c3)cc2)n1 | 3.7 µM
100 | Cc1c(C(=O)OCC(=O)N2CC(=O)Nc3ccccc32)oc2ccc(Br)cc12 | 4.76 µM
101 | CS(=O)(=O)N1CCN(c2ccc(NC(=O)c3ccc(-c4ccc(Cl)cc4)o3)cc2)CC1 | 9.25 µM
102 | CN(C)CCNC(=O)c1cccc(-c2cc(NC=O)c3ncc(-c4cccc(C(F)(F)F)c4)n3c2)c1 | 24.4 µM
103 | Fc1ccc(-c2ccc(C3[C@@H]4CN(Cc5ccccc5)C[C@H]3N4)cc2)cc1 (some centres not stated) | 6.57 µM
104 | CCOc1ccc(-n2nnnc2-c2nc3ccccc3s2)cc1 | 6.78 µM
105 | COc1cc2c(cc1OC)-c1cc(Nc3ccccc3Br)nc(=O)n1CC2 | 0.366 µM
106 | CCc1nc(N)nc2c1C(=O)CC(C)(C)C2 | > 35 µM (inactive)
107 | CN1CCN(C2Cc3ccccc3Sc3cc(C(F)(F)F)ccc32)CC1 (configuration not stated) | 16 µM
